The text below walks through data of ChEMBL document CHEMBL1795312, “Insights into the structural requirements of farnesyltransferase inhibitors as potential anti-tumor agents based on 3D-QSAR CoMFA and CoMSIA models” (Eur J Med Chem, 2008).

This assay can be described thus: Inhibition of farnesyltransferase.
Consider `COc1cccc(-c2cc(C#N)ccc2COCc2cncn2Cc2ccc(Cl)cc2)c1`, for which the negative-log IC50 (pIC50) (usually the negative decadic logarithm of the IC50, by convention in mol/L) was 8.65.

In turn, `Cc1ccccc1-c1cc(C(OCc2cc(Cl)nc(Cl)c2)c2cncn2C)ccc1C#N` (stereo not drawn) came in with a pIC50 of 7.88.

`N#Cc1ccc(Cn2cncc2CCN[C@H]2CCN(Cc3ccccc3)C2=O)cc1` gave a pIC50 of 6.56.

Regarding `N#Cc1ccc(COCc2cncn2Cc2ccc(C#N)nc2)c(-c2cccc(Cl)c2)c1`, the pIC50 is given as 8.52.

Turning to `Cc1ccccc1-c1cc(C(OCc2nc(-c3ccc(Cl)cc3)cs2)c2cncn2C)ccc1C#N` (stereo not drawn), the pIC50 is recorded as 7.53.

The molecule `Cn1cncc1C(OCc1ccc(F)c(C(F)(F)F)c1)c1ccc(C#N)c(-c2ccccc2C(F)(F)F)c1` (stereo not drawn) showed a pIC50 of 8.38.

The molecule `Cn1cncc1C(OCc1ccc(C#N)c(NCCc2ccccc2)n1)c1ccc(C#N)c(-c2ccccc2C(F)(F)F)c1` (stereo not drawn) had a negative logarithm of the IC50 (pIC50) of 8.04.

On to `Cc1ccccc1-c1cc(C(OCc2ccc(-c3ccccc3)cc2)c2cncn2C)ccc1C#N` (stereo not drawn), for which the pIC50 is listed as 7.88.

`CCSc1ncccc1C(=O)N1CCC(NCc2cncn2Cc2ccc(C#N)cc2)C1=O` (stereo not drawn) had a pIC50 of 8.32.

The molecule `N#Cc1ccc(Cn2cncc2COCc2ccc(C#N)cc2-c2cccc(Cl)c2)cc1` displayed a pIC50 of 9.43.

Turning to `Cc1ccccc1-c1cc(C(OCc2ccc(C#N)cc2)c2cncn2C)ccc1C#N` (stereo not drawn), the pIC50 amounted to 8.39.

As for `Cc1ccccc1-c1cc(C(OCc2c(Cl)cccc2Cl)c2cncn2C)ccc1C#N` (stereo not drawn), the pIC50 came to 7.09.

As to `Cn1cncc1C(OCc1ccc(C#N)c(N2CCN(CCO)CC2)n1)c1ccc(C#N)c(-c2ccccc2C(F)(F)F)c1` (stereo not drawn), the pIC50 was found to be 8.88.

The molecule `Cc1cccc(COC(c2ccc(C#N)c(-c3ccccc3C)c2)c2cncn2C)c1` (stereo not drawn) came in with a pIC50 of 7.21.

`Cn1cncc1C(OCc1ccc(C#N)c(N2CCOCC2)n1)c1ccc(C#N)c(-c2ccccc2C(F)(F)F)c1` (stereo not drawn) registered a pIC50 of 8.88.

Consider `CC(=O)c1ccc(-c2cc(C#N)ccc2COCc2cncn2Cc2ccc(C#N)cc2)cc1`, for which the pIC50 worked out at 8.88.

In turn, `Cn1cncc1C(OCc1ccc(C#N)c(NCC2CCCO2)n1)c1ccc(C#N)c(-c2ccccc2C(F)(F)F)c1` (stereo not drawn) showed a pIC50 of 8.17.

Consider `CC(=O)Nc1cccc(-c2cc(C#N)ccc2COCc2cncn2Cc2ccc(C#N)cc2)c1`, for which the pIC50 worked out at 7.88.

Regarding `Cc1ccccc1-c1cc(C(OCc2cccc(OC(F)(F)F)c2)c2cncn2C)ccc1C#N` (stereo not drawn), the pIC50 was determined as 8.08.

Regarding `N#Cc1ccc(Cn2cncc2COCc2ccc(C#N)cc2-c2ccc(C(F)(F)F)cc2)cc1`, the negative-log IC50 (pIC50) was found to be 8.36.

As for `Cc1ccccc1-c1cc(C(OCc2ccc(C(F)(F)F)cc2)c2cncn2C)ccc1C#N` (stereo not drawn), the pIC50 is reported as 7.92.

Molecule `Cc1ccccc1-c1cc(C(OCc2ccccc2C#N)c2cncn2C)ccc1C#N` (stereo not drawn) displayed a pIC50 of 7.2.

`CCOc1cccc(-c2cc(C#N)ccc2COCc2cncn2Cc2ccc(C#N)nc2)c1` gave a pIC50 of 9.23.

`CN1CCN(c2nc(COC(c3ccc(C#N)c(-c4ccccc4C(F)(F)F)c3)c3cncn3C)ccc2C#N)CC1` (stereo not drawn) registered a negative logarithm of the IC50 (pIC50) of 8.92.

In the case of `N#Cc1ccc(Cn2cncc2COCc2ccc(C#N)cc2-c2ccc(Cl)c(Cl)c2)cc1`, the pIC50 was 9.43.

For `N#Cc1ccc(Cn2cncc2COCc2cnc(C#N)cc2-c2cccc(Cl)c2)cc1`, the pIC50 came out at 8.36.

In turn, `N#Cc1ccc(Cn2cncc2COCc2ccc(C#N)cc2-c2cccc(Cl)c2)nc1` yielded a pIC50 of 8.76.

Take `Cc1ccccc1-c1cc(C(OCc2ccc(Cl)c(Cl)c2)c2cncn2C)ccc1C#N` (stereo not drawn): the pIC50 was found to be 7.56.

On to `Cn1cncc1C(OCc1ccc(C#N)c(N2CCC[C@@H]2CO)n1)c1ccc(C#N)c(-c2ccccc2C(F)(F)F)c1` (stereo partly drawn), for which the pIC50 was 8.69.

Molecule `Cc1ccccc1-c1cc(C(OCc2ccccc2)c2cncn2C)ccc1C#N` (stereo not drawn) had a pIC50 of 7.07.

The molecule `N#Cc1ccc(Cn2cncc2CNC2CCN(C(=O)c3cncc(Br)c3)C2=O)cc1` (stereo not drawn) registered a pIC50 of 7.37.

As for `Cc1ccccc1-c1cc(C(OCc2cnc(Cl)c(Cl)c2)c2cncn2C)ccc1C#N` (stereo not drawn), the pIC50 worked out at 7.82.

`N#Cc1ccc(Cn2cncc2CNC2CCN(c3cccnc3)C2=O)cc1` (stereo not drawn) gave a pIC50 of 7.07.

Molecule `N#Cc1ccc(Cn2cncc2CNC2CCN(c3ccccc3Cl)C2=O)cc1` (stereo not drawn) gave a negative logarithm of the IC50 (pIC50) of 8.82.

In the case of `N#Cc1ccc(Cn2cncc2CN[C@H]2CCN(c3ccccc3)C2=O)cc1`, the pIC50 is 7.13.

On to `Cc1ccccc1-c1cc(C(OCc2ccc(F)cc2)c2cncn2C)ccc1C#N` (stereo not drawn), for which the pIC50 worked out at 7.49.

Consider `N#Cc1ccc(Cn2cncc2COCc2ccc(Cl)cc2-c2cccc(Cl)c2)cc1`, for which the negative logarithm of the IC50 (pIC50) was 9.2.

`N#Cc1ccc(Cn2cncc2CNC2CCN(C(=O)c3cccnc3S)C2=O)cc1` (stereo not drawn) yielded a pIC50 of 5.54.
